From US20250161338A1, “Compounds for Anti-aging Intervention” (AGENCY FOR SCIENCE, TECHNOLOGY AND RESEARCH, priority 2022, published 2025)
Counter-ions that a name gives are not always drawn.

Legend:
[1] = system: prototrophic yeast strain (CEN.PK113-7D); assay: Yeast outgrowth in YPD liquid medium (CLS of aged cells); format: cell-based, Saccharomyces cerevisiae; conditions: age point day 14
Summary of the method: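 Cultures aged at 30 °C in SD medium with double-diluted rapamycin (0–10 nM) or sugars/polyols (0–8 mM). On day 14, 3 µL of culture was transferred into 200 µL YPD and outgrowth read as OD600. Survival expressed relative to day 1 outgrowth (100%).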

[2] = system: prototrophic yeast strain (CEN.PK113-7D); assay: Propidium iodide fluorescence-based CLS method in yeast (incl. high-throughput screening); format: cell-based, Saccharomyces cerevisiae; conditions: for Yeast CLS increase: Yes/No call of the screen;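 for PI intensity: untreated reference is eight DMSO and water control wells per plate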
Summary of the method: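 CEN.PK113-7D aged in SD medium at 30 °C with compounds (rapamycin 0–10 nM; sugars 0–8 mM; screen at single concentrations). At each age point cells were stained with 5 μg/mL PI for 15 min; fluorescence was normalized to OD600, background-subtracted, and survival scaled against boiled-cell control.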

[3] = concentration tested 100 μM, OD600 nm after 24 h in YPD at 30° C.
[4] = concentration tested 100 μM, solvent DMSO or water, chronological age point Day 7 (72 h growth = Day 1), lower = more survival
[5] = concentration tested 30 μg/mL, OD600 nm after 24 h in YPD
[6] = concentration tested 30 μg/mL, solvent water, age point Day 7

Row | Compound | Outgrowth [1, 3] | Yeast CLS increase ([2]; concentration tested 100 μM) | PI intensity [2, 4] | Outgrowth [1, 5] | Yeast CLS increase ([2]; concentration tested 30 μg/mL) | PI intensity [2, 6]
1 | C[C@](N)(Cc1ccc(O)cc1)C(=O)O [Metyrosine, reference compound] | 0.1 | No | 76,947.2 |  |  | 
2 | CN(C)c1ccc(O)c2c1C[C@H]1C[C@H]3[C@H](N(C)C)C(O)=C(C(N)=O)C(=O)[C@@]3(O)C(O)=C1C2=O [Minocycline (hydrochloride), reference compound] | 0.1 |  | 71,078.2 |  |  | 
3 | C/C(=C\C(=O)OCCCCCCCCC(=O)O)C[C@@H]1OC[C@H](C[C@@H]2O[C@H]2[C@@H](C)[C@H](C)O)[C@@H](O)[C@H]1O [Mupirocin, reference compound] | 0.1 | No | 68,477.7 |  |  | 
4 | CN(C)c1nc2c(ncn2[C@@H]2O[C@H](CO)[C@@H](O)[C@H]2O)c(=O)[nH]1 [N2,N2-Dimethylguanosine] | 0.1 | No | 65,619.9 |  |  | 
5 | CC(=O)N[C@@H](Cc1ccc(O)cc1)C(=O)O [N-Acetyl-L-tyrosine] | 0.1 | No | 57,322.5 |  |  | 
6 | O=C1N[C@@H]2C(=C[C@H](O)[C@@H](O)[C@H]2O)c2cc3c(c(O)c21)OCO3 [Narciclasine] | 0.1 | No | 67,161.8 |  |  | 
7 | CC(C)(O)CCc1c(O)cc(O)c2c(=O)c(O)c(-c3ccc(O)cc3)oc12 [Noricaritin] | 0.1 | No | 77,179.8 |  |  | 
8 | Cn1cc(C(N)=O)ccc1=O [Nudifloramide] | 0.1 | No | 65,023.3 |  |  | 
9 | CCCCCCCCCCCCCCC(=O)O [Pentadecanoic acid] | 0.1 | No | 75,173.9 |  |  | 
10 | CC(O)Cn1cnc2c1c(=O)n(C)c(=O)n2C (centres unmarked) [Proxyphylline, reference compound] | 0.1 | No | 72,232.1 |  |  | 
11 | c1ncc2[nH]cnc2n1 [Purine] | 0.1 | No | 53,185.1 |  |  | 
12 | Cl.Cl.[O-][S+]1c2ccccc2N=C(N2CCN(CCOCCO)CC2)c2ccccc21 (centres unmarked) [Quetiapine sulfoxide (dihydrochloride)] | 0.1 | No | 68,761.6 |  |  | 
13 | C=C[C@H]1C[N@@]2CC[C@H]1C[C@H]2[C@H](O)c1ccnc2ccc(OC)cc12 [Quinine (hydrochloride dihydrate), reference compound] | 0.1 | No |  |  |  | 
14 | CO[C@H]1C[C@@H]2CC[C@@H](C)[C@@](O)(O2)C(=O)C(=O)N2CCCC[C@H]2C(=O)O[C@H]([C@H](C)C[C@@H]2CC[C@@H](O)[C@H](OC)C2)CC(=O)[C@H](C)/C=C(\C)[C@@H](O)[C@@H](OC)C(=O)[C@H](C)C[C@H](C)/C=C/C=C/C=C/1C [Rapamycin, reference compound] | 1.3 |  | 21,460.5 |  |  | 
15 | CC1=C(/C=C/C(C)=C/C=C/C(C)=C/C(=O)O)C(C)(C)CCC1 [Retinoic acid, reference compound] | 0.1 |  | 85,242.6 |  |  | 
16 | CC[C@H]1CN2CC[C@]3(C(=O)Nc4ccccc43)[C@@H]2C[C@@H]1/C(=C\OC)C(=O)OC [Rhynchophylline] | 0.1 | No | 55,562.5 |  |  | 
17 | CO[C@H]1/C=C/O[C@@]2(C)Oc3c(C)c([O-])c4c(O)c(cc(O)c4c3C2=O)NC(=O)/C(C)=C\C=C\[C@H](C)[C@H](O)[C@@H](C)[C@@H](O)[C@@H](C)[C@H](OC(C)=O)[C@@H]1C.[Na+] [Rifamycin (sodium), reference compound] | 0.6 | Yes | 39,446.0 |  |  | 
18 | C[C@H]1CNCCCN1S(=O)(=O)c1cccc2cncc(F)c12 [Ripasudil, reference compound] | 0.1 | No | 77,962.0 |  |  | 
19 | O=C(O)/C=C/CCCCCCCO [Royal Jelly acid] | 0.1 | No | 65,406.1 |  |  | 
20 | CC[C@@]1(O)C(=O)OCc2c1cc1n(c2=O)Cc2cc3c([N+](=O)[O-])cccc3nc2-1 [Rubitecan] | 0.1 | No | 57,075.3 |  |  | 
21 | COc1cc2c(c(OC)c1OC)-c1c(cc3c(c1OC)OCO3)C[C@H](C)[C@@](C)(O)C2 [Schisandrol B] | 0.1 | No | 80,051.7 |  |  | 
22 | C[Se]CC[C@H](N)C(=O)O [Selenomethionine] | 1.2 | Yes | 29,837.8 |  |  | 
23 | CN[C@@H]1C[C@H]2O[C@@](C)([C@@H]1OC)n1c3ccccc3c3c4c(c5c6ccccc6n2c5c31)C(=O)NC4 [Staurosporine] | 0.1 | No | 67,250.9 |  |  | 
24 | C[C@H](Cn1cnc2c(N)ncnc21)OCP(=O)(O)O.O [Tenofovir (hydrate), reference compound] | 0.1 | No | 76,065.0 |  |  | 
25 | CC(C)N1CCN(c2ccc(OCC3COC(Cn4cncn4)(c4ccc(Cl)cc4Cl)O3)cc2)CC1 (centres unmarked) [Terconazole, reference compound] | 0.1 | No | 72,350.0 |  |  | 
26 | Cc1nc(C)c(C)nc1C [Tetramethylpyrazine] | 0.1 | No | 62,003.6 |  |  | 

Row | Compound | Outgrowth [1, 3] | Yeast CLS increase ([2]; concentration tested 100 μM) | PI intensity [2, 4] | Outgrowth [1, 5] | Yeast CLS increase ([2]; concentration tested 30 μg/mL) | PI intensity [2, 6]
27 | Cc1ccc(C(C)C)c(O)c1 [Thymol] | 0.1 | No | 61,503.8 |  |  | 
28 | O=C(O)CCCCCCCCCCCC(=O)O [Tridecanedioic acid] | 0.1 | No | 80,407.7 |  |  | 
29 | O=c1ccn([C@@H]2O[C@H](CO)[C@@H](O)[C@H]2O)c(=O)[nH]1 [Uridine] | 0.1 | No | 84,894.9 |  |  | 
30 | O[C@H]([C@H](O)[C@@H]1CO1)[C@H]1CO1 [VAL-083] | 0.1 | No | 63,325.5 |  |  | 
31 | COc1cc(C(=O)O)ccc1O [Vanillic acid] | 0.1 | No | 64,546.4 |  |  | 
32 | COc1cc(O)c(C(C)=O)c(OC)c1 [Xanthoxylin] | 0.1 | No | 70,352.1 |  |  | 
33 | CCCCC[C@H](O)CC(=O)CCc1ccc(O)c(OC)c1 [[6]-Gingerol] | 0.1 | No | 61,395.3 |  |  | 
34 | N#CCCN [β-Aminopropionitrile] | 0.1 | No | 65,865.6 |  |  | 
35 | CC(=O)O[C@H]1CC[C@H]2[C@@H]3CCc4cc(O)ccc4[C@H]3CC[C@]12C [β-Estradiol 17-acetate] | 0.5 | Yes | 34,621.0 |  |  | 
36 | CC1(C)CCC2=C(O1)c1ccccc1C(=O)C2=O [β-Lapachone] | 0.1 | No | 67,892.9 |  |  | 
37 | Amarogentin | 0.1 | No | 70,083.5 |  |  | 
38 | Aprotinin | 0.1 | No | 70,144.6 |  |  | 
39 | Catechin | 0.1 | No | 63,589.5 |  |  | 
40 | Chondroitin (sulfate) |  |  |  | 0.1 | No | 75,572.6
41 | Cisatracurium (besylate) [reference compound] | 0.1 | No | 75,862.3 |  |  | 
42 | Escin | 0.1 | No | 70,495.1 |  |  | 
43 | Estramustine (phosphate sodium) [reference compound] | 0.2 | No | 77,514.0 |  |  | 
44 | Estrone sulfate (potassium) | 0.1 | No | 54,751.8 |  |  | 
45 | Gentamicin (sulfate) [reference compound] |  |  |  | 0.1 | No | 73,296.2
46 | Gramicidin [reference compound] | 0.1 | No | 79,922.3 |  |  | 
47 | Heparin (Lithium salt) [reference compound] |  |  |  | 0.1 | No | 77,829.1
48 | Heparin (sodium salt) (MW 15 kDa) [reference compound] |  |  |  | 0.1 | No | 64,969.0
49 | Hyaluronidase |  |  |  | 0.1 | No | 78,406.7
50 | Melanin | 1.0 | Yes | 39,360.1 |  |  | 
51 | Polidocanol [reference compound] |  |  |  | 0.1 | No | 74,745.5
52 | Schisantherin B | 0.1 | No | 68,765.7 |  |  | 
